System: 931267-113-T-J1-PDC KRAS spheroid with HUVEC/MSC, viability
Assay: Anticancer human tumor 931267-113-T-J1-PDC patient-derived colon adenocarcinoma cell line growth inhibition [KRAS2]
Conditions: for IC50: curve of first compound; for viability, T/C: stronger effect = lower value
Procedure, shortened: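 Combination screen of spheroid viability in tumor-cell co-cultures with endothelial (HUVEC) and mesenchymal stem cell stroma. Each agent was tested in half-log dilutions, topping at clinical Cmax or at 10 microM without a known Cmax.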

[1] = second compound 0.1 µM, first compound 0.0316 µM
[2] = second compound 0.1 µM, first compound 0.1 µM
[3] = second compound 0.1 µM, first compound 0.316 µM
[4] = second compound 0.1 µM, first compound 1 µM
[5] = second compound 0.1 µM, first compound 3.16 µM
[6] = second compound 0.1 µM, first compound 10 µM
[7] = second compound 0.316 µM, first compound 0.0316 µM
[8] = second compound 0.316 µM, first compound 0.1 µM
[9] = second compound 0.316 µM, first compound 0.316 µM
[10] = second compound 0.316 µM, first compound 1 µM
[11] = second compound 0.316 µM, first compound 3.16 µM
[12] = second compound 0.316 µM, first compound 10 µM
[13] = second compound 1 µM, first compound 0.0316 µM
[14] = second compound 1 µM, first compound 0.1 µM
[15] = second compound 1 µM, first compound 0.316 µM
[16] = second compound 1 µM, first compound 1 µM
[17] = second compound 1 µM, first compound 3.16 µM
[18] = second compound 1 µM, first compound 10 µM
[19] = second compound 3.16 µM, first compound 0.0316 µM
[20] = second compound 3.16 µM, first compound 0.1 µM
[21] = second compound 3.16 µM, first compound 0.316 µM
[22] = second compound 3.16 µM, first compound 1 µM
[23] = second compound 3.16 µM, first compound 3.16 µM
[24] = second compound 3.16 µM, first compound 10 µM
[25] = second compound 0.1 µM, first compound 0.01 µM
[26] = second compound 0.316 µM, first compound 0.01 µM
[27] = second compound 1 µM, first compound 0.01 µM
[28] = second compound 3.16 µM, first compound 0.01 µM
[29] = second compound 10 µM, first compound 0.01 µM
[30] = second compound 10 µM, first compound 0.0316 µM
[31] = second compound 10 µM, first compound 0.1 µM
[32] = second compound 10 µM, first compound 0.316 µM
[33] = second compound 10 µM, first compound 1 µM
[34] = second compound 10 µM, first compound 3.16 µM
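Also: compound exposure lasted 7 days before the readout.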
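For viability, T/C in this document: 100% = DMSO vehicle control viability.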

For `CC1OCC2(CCN(c3cnc(Sc4ccnc(N)c4Cl)c(N)n3)CC2)C1N` (stereo not given) + C=CC(=O)N1CCN(c2nc(OCC3CCCN3C)nc3c2CCN(c2cccc4cccc(C)c24)C3)CC1CC#N, the IC50 (second compound 0.0316 µM) was > 10 µM, the IC50 (second compound 0.1 µM) was > 10 µM and the IC50 (second compound 0.316 µM) was > 10 µM. The IC50 (second compound 1 µM) was > 10 µM, the IC50 (second compound 3.16 µM) was < 0.0316 µM and the viability, T/C (second compound 0.0316 µM, first compound 0.0316 µM) was 111%. It also gave a viability, T/C (second compound 0.0316 µM, first compound 0.1 µM) of 81.9%, a viability, T/C (second compound 0.0316 µM, first compound 0.316 µM) of 77.3% and a viability, T/C (second compound 0.0316 µM, first compound 1 µM) of 58.2%. It also gave a viability, T/C (second compound 0.0316 µM, first compound 3.16 µM) of 80%, a viability, T/C (second compound 0.0316 µM, first compound 10 µM) of 83% and a viability, T/C [1] of 98.3%. For the same compound, the viability, T/C [2] was 75.6%, the viability, T/C [3] was 79.1% and the viability, T/C [4] was 75.2%. For the same compound, the viability, T/C [5] was 71.1%, the viability, T/C [6] was 99.3% and the viability, T/C [7] was 93%. It also gave a viability, T/C [8] of 87.8%, a viability, T/C [9] of 69.1% and a viability, T/C [10] of 70.2%. It also gave a viability, T/C [11] of 75.6%, a viability, T/C [12] of 69.6% and a viability, T/C [13] of 78%. For the same compound, the viability, T/C [14] was 65.9%, the viability, T/C [15] was 55.2% and the viability, T/C [16] was 68.7%. For the same compound, the viability, T/C [17] was 68.8%, the viability, T/C [18] was 61.2% and the viability, T/C [19] was 0.31%. The viability, T/C [20] was 0.29%, the viability, T/C [21] was 0.36% and the viability, T/C [22] was 0.26%. For the same compound, the viability, T/C [23] was 0.28% and the viability, T/C [24] was 0.26%.
With `CC(=O)OC12COC1CC(O)C1(C)C(=O)C(O)C3=C(C)C(OC(=O)C(O)C(NC(=O)OC(C)(C)C)c4ccccc4)CC(O)(C(OC(=O)c4ccccc4)C21)C3(C)C` (stereo not given) + CC1OCC2(CCN(c3cnc(Sc4ccnc(N)c4Cl)c(N)n3)CC2)C1N the IC50 (second compound 0.1 µM) was > 3.16 µM, the IC50 (second compound 0.316 µM) was > 3.16 µM and the IC50 (second compound 1 µM) was > 3.16 µM. It also gave an IC50 (second compound 3.16 µM) of 0.289 µM, an IC50 (second compound 10 µM) of 0.278 µM and a viability, T/C [25] of 88.4%. It also gave a viability, T/C [1] of 90.5%, a viability, T/C [2] of 74.8% and a viability, T/C [3] of 80%. It also gave a viability, T/C [4] of 86.2%, a viability, T/C [5] of 91.4% and a viability, T/C [26] of 74.8%. The viability, T/C [7] was 90.5%, the viability, T/C [8] was 64.9% and the viability, T/C [9] was 65.4%. For the same compound, the viability, T/C [10] was 78.6%, the viability, T/C [11] was 58.5% and the viability, T/C [27] was 95.2%. It also gave a viability, T/C [13] of 111%, a viability, T/C [14] of 108% and a viability, T/C [15] of 82.8%. The viability, T/C [16] was 79.5%, the viability, T/C [17] was 93.2% and the viability, T/C [28] was 52.3%. The viability, T/C [19] was 74.3%, the viability, T/C [20] was 53% and the viability, T/C [21] was 50.6%. The viability, T/C [22] was 48.9%, the viability, T/C [23] was 49.7% and the viability, T/C [29] was 59%. The viability, T/C [30] was 63.4%, the viability, T/C [31] was 66.8% and the viability, T/C [32] was 38%. For the same compound, the viability, T/C [33] was 50.4% and the viability, T/C [34] was 56.6%.
`CN(C)C/C=C/C(=O)Nc1cc2c(Nc3ccc(F)c(Cl)c3)ncnc2cc1O[C@H]1CCOC1` + CC1OCC2(CCN(c3cnc(Sc4ccnc(N)c4Cl)c(N)n3)CC2)C1N was tested, and the IC50 (second compound 0.1 µM) was > 0.1 µM, the IC50 (second compound 0.316 µM) was > 0.1 µM and the IC50 (second compound 1 µM) was > 0.1 µM. For the same compound, the IC50 (second compound 3.16 µM) was < 0.000316 µM, the IC50 (second compound 10 µM) was > 0.1 µM and the viability, T/C (second compound 0.1 µM, first compound 0.000316 µM) was 80.6%. It also gave a viability, T/C (second compound 0.1 µM, first compound 0.001 µM) of 77.1%, a viability, T/C (second compound 0.1 µM, first compound 0.00316 µM) of 58.5% and a viability, T/C [25] of 73.5%. For the same compound, the viability, T/C [1] was 84.6%, the viability, T/C [2] was 69% and the viability, T/C (second compound 0.316 µM, first compound 0.000316 µM) was 66.8%. For the same compound, the viability, T/C (second compound 0.316 µM, first compound 0.001 µM) was 70%, the viability, T/C (second compound 0.316 µM, first compound 0.00316 µM) was 65.5% and the viability, T/C [26] was 62.6%. The viability, T/C [7] was 67.4%, the viability, T/C [8] was 80.4% and the viability, T/C (second compound 1 µM, first compound 0.000316 µM) was 84.4%. It also gave a viability, T/C (second compound 1 µM, first compound 0.001 µM) of 77.4%, a viability, T/C (second compound 1 µM, first compound 0.00316 µM) of 77% and a viability, T/C [27] of 71.4%. The viability, T/C [13] was 93.5%, the viability, T/C [14] was 90.8% and the viability, T/C (second compound 3.16 µM, first compound 0.000316 µM) was 34.6%. The viability, T/C (second compound 3.16 µM, first compound 0.001 µM) was 48.8%, the viability, T/C (second compound 3.16 µM, first compound 0.00316 µM) was 49.1% and the viability, T/C [28] was 49.6%. The viability, T/C [19] was 57.7%, the viability, T/C [20] was 49.4% and the viability, T/C (second compound 10 µM, first compound 0.000316 µM) was 90.2%. The viability, T/C (second compound 10 µM, first compound 0.001 µM) was 71.6%, the viability, T/C (second compound 10 µM, first compound 0.00316 µM) was 68.4% and the viability, T/C [29] was 71.5%. The viability, T/C [30] was 97.1% and the viability, T/C [31] was 93.7%.
For `O=C(c1cc(Cc2n[nH]c(=O)c3ccccc23)ccc1F)N1CCN(C(=O)C2CC2)CC1` + CC1OCC2(CCN(c3cnc(Sc4ccnc(N)c4Cl)c(N)n3)CC2)C1N, the IC50 (second compound 0.1 µM) was > 10 µM, the IC50 (second compound 0.316 µM) was > 10 µM and the IC50 (second compound 1 µM) was > 10 µM. The IC50 (second compound 3.16 µM) was > 10 µM, the IC50 (second compound 10 µM) was 3.16 µM and the viability, T/C [1] was 72.8%. The viability, T/C [2] was 70.8%, the viability, T/C [3] was 72.9% and the viability, T/C [4] was 68.4%. It also gave a viability, T/C [5] of 81.5%, a viability, T/C [6] of 73.5% and a viability, T/C [7] of 64.2%. It also gave a viability, T/C [8] of 72.7%, a viability, T/C [9] of 59.1% and a viability, T/C [10] of 66.9%. The viability, T/C [11] was 54.8%, the viability, T/C [12] was 62.4% and the viability, T/C [13] was 86.6%. The viability, T/C [14] was 89.5%, the viability, T/C [15] was 89.1% and the viability, T/C [16] was 86%. The viability, T/C [17] was 73.3%, the viability, T/C [18] was 89.1% and the viability, T/C [19] was 56.6%. It also gave a viability, T/C [20] of 48%, a viability, T/C [21] of 52.6% and a viability, T/C [22] of 64.6%. For the same compound, the viability, T/C [23] was 56.4%, the viability, T/C [24] was 50.8% and the viability, T/C [30] was 59.9%. For the same compound, the viability, T/C [31] was 60.2%, the viability, T/C [32] was 99% and the viability, T/C [33] was 46%. For the same compound, the viability, T/C [34] was 63.9% and the viability, T/C (second compound 10 µM, first compound 10 µM) was 51.9%.

— PubChem BioAssay AID1963863 (Molecular Pharmacology Branch, DTP, NCI, 2024)
